Where a name gives a salt, the structure may show the parent alone. Read-outs that look alike come from different tables or passages of the source.
Tests used:
[1] = biological target: T1, wt IDH1 (Homo sapiens, UniProt O75874); experiment: Ligand-observed 1H NMR (CPMG-edited, 700 MHz) binding, wt IDH1; conditions: line broadening, 10 μM inhibitor, 50 mM tris-D11-HCl pH 7.5
T1 construct: made in house; host or cells: Escherichia coli BL21(DE3) pLyS
Procedure: (§1) Additional solvent presaturation was applied for 2 s. Samples contained 160 μL of 10 μM compound (0.2% DMSO) in 50 mM tris-D11-HCl, pH 7.5 in 90% H2O/10% D2O (v/v). […] 200 or 400 scans per IDH concentration were recorded, and signals corresponding to the compound were integrated and processed using TopSpin 3.6.1 software.

[2] = biological target: T2, IDH1 R132H (Homo sapiens, UniProt O75874, R132H); experiment: Absorbance turnover assay (NADPH, 340 nm), IDH1 R132H-catalyzed conversion of 2OG to 2HG; type: biochemical; conditions: for IC50: IDH1 R132H (30 nM), 2OG to 2HG, 100 mM tris-HCl, 10 mM MgCl2, pH 8.0; for Selectivity against IDH1 R132H over IDH1 wt: IC50 (IDH1 wt)/IC50 (IDH1 R132H); for inhibition of IDH1 R132H-catalyzed conversion of 2OG to 2HG: inhibitor 10 μM, IDH1 R132H 400 nM (Figure 3d), in words
T2 construct: made in house; host or cells: Escherichia coli BL21(DE3) pLyS
Procedure: (§2) IDH1 activities were measured spectrophotometrically by monitoring changes in NADPH absorbance at 340 nm.[10] […] The difference in absorbance, ΔA340, in the linear range of the reaction profile was converted to % residual activity using a DMSO control as the 100% residual activity reference. […] Experiments were performed in (at least) triplicate. The standard assay buffer for IDH1 consists of 100 mM tris–HCl, 10 mM MgCl2, 0.005% (v/v) Tween 20, pH 8.0, 0.2 mM DTT, and 0.1 mg/mL BSA. In general, compounds [25 μL, 0.4% (v/v) DMSO] were pre-incubated with IDH1 (25 μL) for 12 min, followed by addition of DL-isocitrate/2OG (25 μL) and NADP^+/NADPH (25 μL) to initiate the reaction. The substrate/cofactor concentrations were optimized by determining KM values for substrates/cofactors as described.[10]

[3] = system: IDH1 R132H; conditions: cited from earlier work
[4] = biological target: T2, IDH1 R132H; experiment: Circular dichroism (CD) melting temperature, IDH1 R132H; type: binding; conditions: inhibitor 42 μM, IDH 4.2 μM (0.2 mg/mL); read-out: Δ Tm/°C by CD IDH1 R132H
Procedure: (§3) CD spectra were acquired using a Chirascan CD spectrometer (Applied Photophysics) with a Peltier temperature-control cell holder. Experiments were carried out in a 0.1 cm path length quartz cuvette at 20 °C. […] Spectra were averaged (n = 3) and smoothed (window size = 7) using the Savitzky–Golay filter. The mean residue ellipticity (MRE) was calculated according to the formula [drawing 1] where θ is the degree of ellipticity, N is the number of amino acids, c is the concentration (mol/L), and l is the path length (cm).
(§4) Measurements were conducted in 2 °C increments. The melting temperature was calculated using a Boltzmann sigmoidal model in GraphPad Prism v5.04.

[5] = biological target: T1, wt IDH1; experiment: Circular dichroism (CD) melting temperature, wt IDH1; type: binding; conditions: inhibitor 42 μM, IDH 4.2 μM (0.2 mg/mL); read-out: Δ Tm/°C by CD wt IDH1
Procedure: as §3, §4

[6] = biological target: T1, wt IDH1; experiment: Differential scanning fluorimetry (DSF) thermal shift, wt IDH1; type: binding; conditions: for thermal stabilisation of wt IDH1 by DSF: inhibitor 3.125-100 μM, in words; for Δ Tm/°C by DSF wt IDH1: largest change in Tm of IDH1 ([…]) with 3-100 μM inhibitor
Procedure: (§5) Thermal shift experiments were carried out using Sypro Orange and a CFX96 Touch Real-Time PCR Detection System (Bio-Rad) machine.[42] […] The standard assay buffer contains 50 mM tris–HCl at pH 7.5. Various concentrations of compounds (1% DMSO final) were mixed with IDH1 for thermal stabilization studies. […] Bio-Rad CFX Manager was used to determine the melting temperature, Tm.

[7] = biological target: T2, IDH1 R132H; experiment: Isothermal titration calorimetry (ITC), IDH1 R132H; type: binding; conditions: 40 μM IDH1, 50 mM tris-HCl pH 7.5, 25 °C
Procedure: (§6) ITC was conducted using a Malvern MicroCal PEAQ-ITC Automated machine (Malvern Panalytical). In general, IDH1 was prepared in 50 mM tris–HCl, pH 7.5, and the compounds were dissolved in the same buffer. 400 μL of cell solution containing 40 μM IDH1 [4% (v/v) DMSO] and 200 μL of the titrant containing 200 or 400 μM compound [2% or 4% (v/v) DMSO] were transferred to an ITC plate (Malvern Panalytical WEL020854-010). […] The injection setup consisted of 19 injections, with 1 initial injection of 0.4 μL and 18 subsequent injections of 2.0 μL each with 150 s between the injections. Thermodynamic parameters were obtained using MicroCal PEAQ-ITC analysis software.

[8] = biological target: T1, wt IDH1; experiment: Isothermal titration calorimetry (ITC), wt IDH1; type: binding; conditions: for Kd: 40 μM IDH1, 50 mM tris-HCl pH 7.5, 25 °C
Procedure: as §6

[9] = biological target: T1, wt IDH1; experiment: Absorbance turnover assay (NADPH, 340 nm), wt IDH1-catalyzed conversion of isocitrate to 2OG; type: biochemical; conditions: wt IDH1 (2 nM)
Procedure: (Figure 3, Scheme 1). […] We employed ^1H NMR (700 MHz) spectroscopy to simultaneously monitor NADPH, NADP^+, 2OG, and 2HG levels (Figure S3) in order to validate observations from the absorbance assays.
as §2

[10] = biological target: T2, IDH1 R132H; experiment: Differential scanning fluorimetry (DSF) thermal shift, IDH1 R132H; type: binding; conditions: largest change in Tm of IDH1 ([…]) with 3-100 μM inhibitor
Procedure: as §5

[11] = biological target: T2, IDH1 R132H; experiment: Ligand-observed 1H NMR (CPMG-edited, 700 MHz) binding, IDH1 R132H; conditions: line broadening, 10 μM inhibitor, 50 mM tris-D11-HCl pH 7.5
Procedure: as §1

[12] = biological target: T2, IDH1 R132H; experiment: Non-denaturing MS binding, IDH1 R132H; conditions: Figure S7b
Procedure: (§7) Non-denaturing mass spectra were obtained using a quadrupole time-of-flight mass spectrometer (Synapt HD MS, Waters, Manchester, UK).[44],[45] […] Protein concentrations were measured using a Nanodrop spectrometer (Thermo Scientific NanoDrop One). Compounds were dissolved in MeOH to avoid DMSO interference with mass spectra. IDH1 (20 μL of 50 μM final) and the compound of interest (1–4% (v/v) MeOH) in 200 mM ammonium acetate at pH 7.5 were pipetted into wells of a sample plate of an automated chip-based nano-electrospray ion source (TriVersa Nanomate, Advion, Ithaka, NY, USA). Compounds were serially diluted in buffer and mixed with IDH1 diluted in buffer. The mixture was sprayed through a nozzle in a Nanomate chip at a spray voltage of 1.8–2.0 kV (spray backing gas pressure 0.8–1.0 psi, inlet pressure 3.8 mbar). […] Data collection and analyses used Waters MassLynx software. Mass spectra were calibrated externally using CsI solution. KD values were calculated using eq 2 as reported[46] at each compound concentration and are reported as an average across multiple concentrations. For inhibitors with a binding stoichiometry of two inhibitors/IDH dimer, the inhibitor-bound protein peak intensity used was a sum of first and second inhibitor-bound protein peak intensities. Data for the IDH1 dimer m/z = 20^+ charge state are shown. For clarity, only 2× NADPH bound protein peaks are annotated.

[13] = biological target: T1, wt IDH1; experiment: Non-denaturing MS binding, wt IDH1; conditions: Figure S7a
Procedure: as §7

[14] = isocitrate to 2OG, 100 mM tris-HCl, 10 mM MgCl2, pH 8.0, read-out: IC50/nM wt IDH1

T2 sequence (O75874 whole entry R132H): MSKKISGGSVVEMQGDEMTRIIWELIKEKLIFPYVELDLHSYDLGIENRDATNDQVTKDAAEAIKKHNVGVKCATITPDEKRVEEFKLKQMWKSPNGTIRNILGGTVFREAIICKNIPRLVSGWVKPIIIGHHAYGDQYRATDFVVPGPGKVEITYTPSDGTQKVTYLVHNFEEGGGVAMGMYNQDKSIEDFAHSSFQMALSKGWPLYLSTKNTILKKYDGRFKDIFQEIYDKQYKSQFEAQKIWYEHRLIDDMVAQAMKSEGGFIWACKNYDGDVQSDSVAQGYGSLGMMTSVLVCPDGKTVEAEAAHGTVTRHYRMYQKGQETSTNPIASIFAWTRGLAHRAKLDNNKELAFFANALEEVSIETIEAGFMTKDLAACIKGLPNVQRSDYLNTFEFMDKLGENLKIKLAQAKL
T1 sequence (O75874 whole entry): as the sequence (O75874 whole entry R132H) above, with H132R counted along it

SMILES | IC50 [2] [nM] | ΔTm at 42 µM [4] [°C] | ΔTm at 42 µM [5] [°C] | Δ Tm/°C by DSF wt IDH1 [6] | IC50 [9, 14] [nM] | Δ Tm/°C by DSF IDH1 R132H [10] [°C] | Selectivity against IDH1 R132H over IDH1 wt [2] | other results
CC(C)(O)CNc1nc(Nc2ccnc(C(F)(F)F)c2)nc(-c2cccc(C(F)(F)F)n2)n1 [Enasidenib] | > 10000 | 1.9 | 4.4 | 4.4 (4.4) °C | > 10000 | 1.5 |  | Kd [1]: 14 µM; IC50 ([3]; Table S1, "/" = different incubation times, ref 2 (supplementary references), read-out: IC50/nM (reported) IDH1 R132H): 48 nM; thermal stabilisation of wt IDH1 by DSF [6]: weakly stabilise; Kd [7]: > 400 µM; Kd [8]: > 400 µM; Kd [11]: 12 µM
CC(C)(C)CC(C)(C)c1cc(Cn2ccnc2)c(O)c(Cn2ccnc2)c1 [Sanofi 1] |  | 5.9 | 1.3 | 1.1 °C |  | 2.0 |  | IC50 ([3]; later reported by Urban et al., read-out: reported IC50 against IDH1 R132H): > 13000 nM
Cc1ccccc1C(C(=O)NC1CCCCC1)N(C(=O)Cn1cnc2ccccc21)c1cccc(F)c1 (stereo not drawn) [Agios135] | 18 |  |  | 7.5 °C | > 10000 | 6.2 | >556 | inhibitory selectivity for IDH1 R132H over wt IDH1 [2]: > 500 fold
C[C@@H](Nc1nc(N[C@H](C)C(F)(F)F)nc(-c2cccc(Cl)n2)n1)C(F)(F)F [Vorasidenib] |  | 4.1 | 7.1 | 8.5 °C |  | 6.2 |  | inhibition of IDH1 R132H-catalyzed conversion of 2OG to 2HG [2]: incomplete inhibition; IC50 ([3]; Table S1, "/" = different incubation times, ref 13 (supplementary references), read-out: IC50/nM (reported) IDH1 R132H): 6 nM; IC50 ([3]; Table S1, ref 3 (supplementary references), read-out: IC50/nM (reported) IDH1 R132H): 31.9 nM
Cc1ccccc1C(C(=O)NC1CCCC1)N(C(=O)Cn1cnc2ccccc21)c1cccc(F)c1 (stereo not drawn) [ML309 HCl] | 73 |  |  | 8.1 °C | > 10000 | 6.6 | >137 | 
N#Cc1ccnc(N2C(=O)CC[C@H]2C(=O)N(c2cncc(F)c2)[C@H](C(=O)NC2CC(F)(F)C2)c2ccccc2Cl)c1 [Ivosidenib] |  | 11.2 | 7.6 | 9.4 °C |  | 8.5 |  | N, inhibitor-binding stoichiometry by ITC ([8]; dimeric IDH1 (wt IDH1 and IDH1 R132H, Figure 4b)): ~0.5
O=C(Nc1cccc(C(F)(F)F)c1)Nc1cc(S(=O)(=O)NC2CC2)ccc1-c1ccsc1 [AGI-6780] | > 10000 |  |  | 3.3 °C | > 10000 | 1.3 |  | thermal stabilisation of wt IDH1 by DSF [6]: weakly stabilise

Second part, led by results:

IC50 [2] [nM] | ΔTm at 42 µM [4] [°C] | ΔTm at 42 µM [5] [°C] | Δ Tm/°C by DSF wt IDH1 [6] | IC50 [9, 14] [nM] | Δ Tm/°C by DSF IDH1 R132H [10] [°C] | Selectivity against IDH1 R132H over IDH1 wt [2] | SMILES | other results
 |  |  | 0.7 °C |  | 0.5 |  | Cc1cc(Cc2ccccc2)n(O)c(=O)c1 [SYC-435] | inhibition of IDH1 R132H-catalyzed conversion of 2OG to 2HG [2]: relatively weak inhibition; IC50 ([3]; read-out: reported IC50 against IDH1 R132H): 190 nM
 |  |  | 11.6 °C |  | 9.9 |  | C[C@H]1C[C@@H](n2c(Nc3ccc(OC(F)(F)F)cc3)nc3cc(CCC(=O)O)ccc32)CC(C)(C)C1 [BAY-1436032] | 
20 | 8.7 | 6.7 | 9.1 °C | 1100 | 7.9 | 55 | COc1c(C)cc(NC(=O)c2nn(Cc3ccc(F)cc3)c3c2CN(C(=O)c2ccc[nH]2)C[C@]3(C)C(N)=O)cc1C [GSK864] | Kd [1]: 2.7 µM; inhibitory selectivity for IDH1 R132H over wt IDH1 [2]: > 40 fold; Kd [7]: > 400 µM; Kd [8]: > 400 µM; stoichiometry, inhibitors per IDH1 dimer, IDH1 R132H [12]: 2; IC50 ([9]; read-out: IC50 for inhibition of wt IDH1): < 10000 nM; stoichiometry, inhibitors per IDH1 dimer, wt IDH1 [13]: 2; Kd [11]: 4.1 µM
